Measured values from patent publication US12516056B2, “Compounds for inhibition of janus kinase 1” (MANKIND PHARMA LTD., priority 2019, dated 2026).

How the values were obtained:
Recombinant JAK2 = molecular target: T1, Recombinant JAK2 (Homo sapiens, UniProt O60674); assay: JAK biochemical assay (LANCE Ultra TR-FRET), JAK2; details: recombinant JAK2, TR-FRET; read-out: Biochemical Assay (μM) JAK2
T1 construct: purchased Carna Biosciences
In short: (§1)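 Kinase reactions ran in buffer of 50 mM HEPES pH 7.5 with 1 mM EGTA, 10 mM MgCl2, 2 mM DTT and 0.01% Tween-20, using recombinant enzyme. Phosphorylated ULight substrate was detected by TR-FRET, and compound effect expressed as % inhibition against vehicle.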

[1] = test system: STAT5 phosphorylation by IL-2 in HT-2 cells; assay: STAT5 phosphorylation by IL-2 in HT-2 cells (HTRF); type: cell-based; details: HT2, HT-2 cells, IL-2 50 U/ml, pSTAT5 HTRF; read-out: Cell Based Assay (μM) HT-2/IL-2/pSTAT5
Procedure: HT-2 cells were starved […] in RPMI phenol red with 10% fetal bovine serum for 4 hours in CO2 incubator maintained at 37° c. Compounds were diluted in DMSO and added to 96 well plate containing a final density of 1,20,000 cells per well. Cells and compounds are incubated for 30 minutes in CO2 incubator maintained at 37° C. and final DMSO concentration in cell based assay was 0.2%. Human recombinant cytokine, IL-2 (50 U/ml) was added to the plate containing cells and compound and incubated for 20 minutes with gentle tapping/shaking at every 5 minutes once. Compound mediated effects on STAT5 phosphorylation was measured in the lysates prepared by using CISBIO pSTAT5 detection kit by HTRF method. Background signal obtained from cells which were not activated with cytokines, was subtracted from vehicle controls and compound treated wells.

[2] = test system: STAT5 phosphorylation by GMCSF in TF-1 cells; assay: JAK cellular assay: STAT5 phosphorylation by GMCSF in TF-1 cells (HTRF); type: cell-based; details: Homo sapiens; TF-1 cells, GMCSF 5 ng/ml, pSTAT5 HTRF; read-out: Cell Based Assay (μM) TF-1/GMCSF/pSTAT5
In short: (§2)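 Phospho-STAT3 (IL-6, 30 ng/ml) and phospho-STAT5 (GMCSF, 5 ng/ml) read by HTRF in lysates after 20 min cytokine exposure, minus unstimulated-cell background. Cells were serum-starved overnight, plated at 120,000/well, given compound 30 min at 37 °C beforehand; DMSO 0.2% final.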

Recombinant JAK1 = molecular target: T2, Recombinant JAK1 (Homo sapiens, UniProt P23458); assay: JAK biochemical assay (LANCE Ultra TR-FRET), JAK1; details: recombinant JAK1, TR-FRET; read-out: Biochemical Assay (μM) JAK1
T2 construct: purchased Carna Biosciences
In short: as §1

[3] = test system: STAT3 phosphorylation by IL-6 in TF-1 cells; assay: JAK cellular assay: STAT3 phosphorylation by IL-6 in TF-1 cells (HTRF); type: cell-based; details: Homo sapiens, TF-1, TF-1 cells, IL-6 30 ng/ml, pSTAT3 HTRF; read-out: Cell Based Assay (μM) TF-1/IL-6/pSTAT3
In short: as §2

Recombinant JAK3 = molecular target: T3, Recombinant JAK3 (Homo sapiens, UniProt P52333); assay: JAK biochemical assay (LANCE Ultra TR-FRET), JAK3; details: recombinant JAK3, TR-FRET; read-out: Biochemical Assay (μM) JAK3
T3 construct: purchased Carna Biosciences
T3 sequence (P52333 1-1124): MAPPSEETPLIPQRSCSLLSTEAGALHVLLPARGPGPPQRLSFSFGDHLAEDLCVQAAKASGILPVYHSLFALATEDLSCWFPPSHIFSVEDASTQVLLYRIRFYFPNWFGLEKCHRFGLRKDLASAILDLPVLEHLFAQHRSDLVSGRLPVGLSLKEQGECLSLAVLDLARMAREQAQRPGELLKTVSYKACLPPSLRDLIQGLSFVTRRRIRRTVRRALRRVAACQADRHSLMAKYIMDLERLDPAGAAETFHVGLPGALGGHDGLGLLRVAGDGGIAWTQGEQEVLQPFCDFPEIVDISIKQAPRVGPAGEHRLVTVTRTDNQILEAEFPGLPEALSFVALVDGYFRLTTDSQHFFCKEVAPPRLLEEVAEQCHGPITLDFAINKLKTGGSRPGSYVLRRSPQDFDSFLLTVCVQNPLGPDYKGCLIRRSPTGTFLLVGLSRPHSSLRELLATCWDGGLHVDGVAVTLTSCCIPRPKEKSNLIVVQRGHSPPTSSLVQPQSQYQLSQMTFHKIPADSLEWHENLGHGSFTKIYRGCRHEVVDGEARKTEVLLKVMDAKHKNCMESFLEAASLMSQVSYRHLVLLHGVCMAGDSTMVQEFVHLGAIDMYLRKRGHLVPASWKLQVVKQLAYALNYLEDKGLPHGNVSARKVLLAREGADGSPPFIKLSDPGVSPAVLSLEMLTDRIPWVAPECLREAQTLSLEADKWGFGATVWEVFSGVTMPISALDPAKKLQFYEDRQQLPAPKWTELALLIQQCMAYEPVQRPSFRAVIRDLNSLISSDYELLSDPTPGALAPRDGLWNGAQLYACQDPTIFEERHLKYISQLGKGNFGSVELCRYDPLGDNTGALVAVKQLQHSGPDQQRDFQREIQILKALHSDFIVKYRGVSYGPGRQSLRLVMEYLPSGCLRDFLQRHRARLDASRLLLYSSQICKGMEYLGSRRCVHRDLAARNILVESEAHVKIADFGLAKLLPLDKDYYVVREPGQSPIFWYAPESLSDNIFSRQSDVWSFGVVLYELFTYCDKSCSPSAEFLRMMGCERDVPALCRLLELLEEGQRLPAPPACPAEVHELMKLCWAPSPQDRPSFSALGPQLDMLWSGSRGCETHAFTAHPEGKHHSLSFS
In short: as §1

Recombinant TYK2 = molecular target: T4, Recombinant TYK2 (Homo sapiens, UniProt P29597); assay: JAK biochemical assay (LANCE Ultra TR-FRET), TYK2; details: recombinant TYK2, TR-FRET; read-out: Biochemical Assay (μM) TYK2
T4 construct: purchased Carna Biosciences
In short: as §1

T1 sequence (O60674 whole entry): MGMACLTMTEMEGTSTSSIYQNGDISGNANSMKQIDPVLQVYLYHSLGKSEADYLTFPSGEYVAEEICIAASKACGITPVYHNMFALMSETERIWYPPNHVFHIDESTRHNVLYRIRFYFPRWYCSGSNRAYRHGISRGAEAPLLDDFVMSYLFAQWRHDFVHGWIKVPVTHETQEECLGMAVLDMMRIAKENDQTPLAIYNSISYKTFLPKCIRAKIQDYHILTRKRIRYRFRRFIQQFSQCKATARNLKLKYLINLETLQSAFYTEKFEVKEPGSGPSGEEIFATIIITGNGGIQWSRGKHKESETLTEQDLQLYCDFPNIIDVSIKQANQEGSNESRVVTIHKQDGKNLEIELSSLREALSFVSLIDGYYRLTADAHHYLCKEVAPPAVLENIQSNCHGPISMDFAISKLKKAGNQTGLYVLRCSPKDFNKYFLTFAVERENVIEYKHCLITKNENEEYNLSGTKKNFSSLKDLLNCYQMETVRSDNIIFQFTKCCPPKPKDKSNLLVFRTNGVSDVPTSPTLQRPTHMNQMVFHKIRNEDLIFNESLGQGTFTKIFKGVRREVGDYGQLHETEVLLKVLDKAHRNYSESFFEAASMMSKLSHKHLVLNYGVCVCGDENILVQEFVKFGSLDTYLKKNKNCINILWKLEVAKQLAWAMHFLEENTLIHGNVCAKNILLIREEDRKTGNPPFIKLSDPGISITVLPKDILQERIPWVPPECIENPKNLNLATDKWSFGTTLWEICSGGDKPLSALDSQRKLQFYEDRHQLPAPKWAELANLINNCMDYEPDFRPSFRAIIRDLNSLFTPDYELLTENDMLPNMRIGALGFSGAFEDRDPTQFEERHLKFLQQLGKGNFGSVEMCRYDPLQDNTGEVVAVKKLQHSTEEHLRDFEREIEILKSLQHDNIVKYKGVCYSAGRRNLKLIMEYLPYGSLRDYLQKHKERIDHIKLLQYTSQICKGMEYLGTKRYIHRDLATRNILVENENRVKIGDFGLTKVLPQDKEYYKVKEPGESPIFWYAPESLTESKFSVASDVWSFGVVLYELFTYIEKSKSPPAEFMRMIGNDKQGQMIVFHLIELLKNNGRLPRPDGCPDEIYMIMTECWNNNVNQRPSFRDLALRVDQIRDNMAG
T4 sequence (P29597 whole entry): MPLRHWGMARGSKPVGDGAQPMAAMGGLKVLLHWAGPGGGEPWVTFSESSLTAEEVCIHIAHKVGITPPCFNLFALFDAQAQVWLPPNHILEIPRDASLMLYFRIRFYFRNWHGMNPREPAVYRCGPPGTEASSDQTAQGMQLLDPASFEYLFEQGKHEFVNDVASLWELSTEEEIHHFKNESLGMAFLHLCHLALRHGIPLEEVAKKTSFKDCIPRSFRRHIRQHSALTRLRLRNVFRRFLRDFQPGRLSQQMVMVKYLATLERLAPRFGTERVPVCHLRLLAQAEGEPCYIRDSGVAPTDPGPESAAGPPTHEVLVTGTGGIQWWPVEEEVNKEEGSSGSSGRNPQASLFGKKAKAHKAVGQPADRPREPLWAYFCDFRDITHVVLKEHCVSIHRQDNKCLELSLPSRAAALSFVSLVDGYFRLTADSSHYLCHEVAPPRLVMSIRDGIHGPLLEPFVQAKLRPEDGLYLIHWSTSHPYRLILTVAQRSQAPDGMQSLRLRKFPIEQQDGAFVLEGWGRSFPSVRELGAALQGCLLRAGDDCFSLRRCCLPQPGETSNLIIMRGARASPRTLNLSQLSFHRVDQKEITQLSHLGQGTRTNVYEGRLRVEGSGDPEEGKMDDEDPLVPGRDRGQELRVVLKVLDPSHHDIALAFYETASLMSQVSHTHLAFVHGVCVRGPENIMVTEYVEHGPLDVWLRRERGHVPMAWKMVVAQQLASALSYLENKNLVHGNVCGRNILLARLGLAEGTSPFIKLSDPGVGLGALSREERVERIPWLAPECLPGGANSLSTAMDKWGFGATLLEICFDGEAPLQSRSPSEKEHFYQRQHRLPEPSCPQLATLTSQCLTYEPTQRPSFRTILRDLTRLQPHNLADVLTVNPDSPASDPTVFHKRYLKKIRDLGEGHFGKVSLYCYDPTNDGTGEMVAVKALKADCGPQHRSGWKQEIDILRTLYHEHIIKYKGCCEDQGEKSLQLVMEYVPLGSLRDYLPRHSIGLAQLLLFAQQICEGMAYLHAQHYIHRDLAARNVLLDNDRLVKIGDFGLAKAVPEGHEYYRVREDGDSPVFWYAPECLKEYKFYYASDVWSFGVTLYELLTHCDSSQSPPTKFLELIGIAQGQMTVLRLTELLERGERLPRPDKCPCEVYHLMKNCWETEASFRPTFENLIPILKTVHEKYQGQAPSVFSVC
T2 sequence (P23458 whole entry): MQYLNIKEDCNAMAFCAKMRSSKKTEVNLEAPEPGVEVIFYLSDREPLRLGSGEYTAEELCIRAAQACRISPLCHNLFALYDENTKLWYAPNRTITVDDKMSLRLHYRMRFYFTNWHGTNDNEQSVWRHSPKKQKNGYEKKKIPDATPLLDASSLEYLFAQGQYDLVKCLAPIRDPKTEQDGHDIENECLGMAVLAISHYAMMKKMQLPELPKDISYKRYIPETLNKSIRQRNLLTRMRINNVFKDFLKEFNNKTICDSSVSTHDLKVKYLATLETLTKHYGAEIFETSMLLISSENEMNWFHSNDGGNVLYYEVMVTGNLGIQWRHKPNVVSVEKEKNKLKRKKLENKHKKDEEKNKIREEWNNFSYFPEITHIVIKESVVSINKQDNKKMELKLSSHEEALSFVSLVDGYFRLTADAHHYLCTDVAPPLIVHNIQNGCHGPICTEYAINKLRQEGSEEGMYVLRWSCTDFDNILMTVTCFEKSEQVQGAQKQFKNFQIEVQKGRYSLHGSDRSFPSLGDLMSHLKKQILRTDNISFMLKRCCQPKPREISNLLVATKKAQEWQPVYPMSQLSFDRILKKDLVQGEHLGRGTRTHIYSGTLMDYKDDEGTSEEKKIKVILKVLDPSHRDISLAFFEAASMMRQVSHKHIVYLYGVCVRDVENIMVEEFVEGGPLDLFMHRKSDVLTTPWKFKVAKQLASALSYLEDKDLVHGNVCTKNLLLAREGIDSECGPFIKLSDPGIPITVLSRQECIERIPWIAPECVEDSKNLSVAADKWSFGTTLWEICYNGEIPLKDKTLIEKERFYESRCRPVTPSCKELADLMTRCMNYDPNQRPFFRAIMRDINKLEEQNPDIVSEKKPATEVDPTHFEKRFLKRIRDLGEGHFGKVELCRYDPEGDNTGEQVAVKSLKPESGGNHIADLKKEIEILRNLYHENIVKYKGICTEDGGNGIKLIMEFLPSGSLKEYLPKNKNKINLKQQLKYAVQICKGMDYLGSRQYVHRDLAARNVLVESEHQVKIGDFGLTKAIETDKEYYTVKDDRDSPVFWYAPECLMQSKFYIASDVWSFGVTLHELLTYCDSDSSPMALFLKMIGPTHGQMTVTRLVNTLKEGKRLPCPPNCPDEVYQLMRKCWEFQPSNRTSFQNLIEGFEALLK

Structure (SMILES) | IC50 (Recombinant JAK2) [µM] | IC50 [1] [µM] | IC50 [2] [µM] | IC50 (Recombinant JAK1) [µM] | IC50 [3] [µM] | IC50 (Recombinant JAK3) [µM] | IC50 (Recombinant TYK2) [µM]
OC(c1ccc(-n2cc(-c3ccnc4[nH]cnc34)cn2)nc1)(C1CC1)C(F)(F)F (centres unmarked) [Example 1126, 1-(6-(4-(3H-imidazo[4,5-b]pyridin-7-yl)-1H-pyrazol-1-yl)pyridin-3-yl)-1-cyclopropyl-2,2,2-trifluoroethanol] | 0.036 | < 1 | > 1 | 0.003 | 0.34 | 0.007 | > 1
CC(C)C(O)(c1ccc(-n2cc(-c3ccnc4[nH]cnc34)cn2)nc1)C(F)(F)F (centres unmarked) [Example 1129, 2-(6-(4-(3H-imidazo[4,5-b]pyridin-7-yl)-1H-pyrazol-1-yl)pyridin-3-yl)-1,1,1-trifluoro-3-methylbutan-2-ol] | > 0.1 | > 1 | > 10 | < 0.1 | > 0.5 | < 0.1 | > 1
CC(=O)N1CCC(C(O)(c2ccc(-n3cc(-c4ccnc5[nH]cnc45)cn3)nc2)C(F)(F)F)CC1 (centres unmarked) [Example 1131, 1-(4-(1-(6-(4-(3H-imidazo[4,5-b]pyridin-7-yl)-1H-pyrazol-1-yl)pyridin-3-yl)-2,2,2-trifluoro-1-hydroxyethyl)piperidin-1-yl)ethanone] | 0.38 | > 1 | > 10 | 0.053 | > 0.5 | 0.11 | > 1
FC(F)(F)C(c1ccc(-n2cc(-c3ccnc4[nH]cnc34)cn2)nc1)C1COC1 (centres unmarked) [Example 1136, 7-(1-(5-(2,2,2-trifluoro-1-(oxetan-3-yl)ethyl)pyridin-2-yl)-1H-pyrazol-4-yl)-3H-imidazo[4,5-b]pyridine] | < 0.1 | 0.8 | > 1 | < 0.1 | 0.7 | < 0.1 | > 1
CS(=O)(=O)NCCC(c1ccc(-n2cc(-c3ccnc4[nH]cnc34)cn2)nc1)C(F)(F)F (centres unmarked) [Example 1143, N-(3-(6-(4-(3H-imidazo[4,5-b]pyridin-7-yl)-1H-pyrazol-1-yl)pyridin-3-yl)-4,4,4-trifluorobutyl)methanesulfonamide] | < 0.1 | 0.67 | < 1 | < 0.1 | 0.47 | < 0.1 | > 1
O=C(NCCC(c1ccc(-n2cc(-c3ccnc4[nH]cnc34)cn2)nc1)C(F)(F)F)C1CCCC1 (centres unmarked) [Example 1151, N-(3-(6-(4-(3H-imidazo[4,5-b]pyridin-7-yl)-1H-pyrazol-1-yl)pyridin-3-yl)-4,4,4-trifluorobutyl)cyclopentanecarboxamide] | > 0.1 | > 1 | > 1 | < 0.1 | > 0.5 | > 0.1 | > 1
CS(=O)(=O)CCC(c1ccc(-n2cc(-c3ccnc4[nH]cnc34)cn2)nc1)C(F)(F)F (centres unmarked) [Example 1174, 7-(1-(5-(1,1,1-trifluoro-4-(methylsulfonyl)butan-2-yl)pyridin-2-yl)-1H-pyrazol-4-yl)-3H-imidazo[4,5-b]pyridine] | 0.108 | 1.3 | > 10 | 0.018 | 0.3 | 0.055 | > 1

Now from value to compound:

IC50 (Recombinant JAK2) [µM] | IC50 [1] [µM] | IC50 [2] [µM] | IC50 (Recombinant JAK1) [µM] | IC50 [3] [µM] | IC50 (Recombinant JAK3) [µM] | IC50 (Recombinant TYK2) [µM] | Structure (SMILES)
> 0.1 | > 1 | > 1 | < 0.1 | > 0.5 | < 0.1 | > 1 | CNC(=O)CC(c1ccc(-n2cc(-c3ccnc4[nH]cnc34)cn2)nc1)C(F)(F)F (centres unmarked) [Example 1145, 3-(6-(4-(3H-imidazo[4,5-b]pyridin-7-yl)-1H-pyrazol-1-yl)pyridin-3-yl)-4,4,4-trifluoro-N-methylbutanamide]
< 0.1 | > 1 | > 1 | < 0.1 | > 0.5 | < 0.1 | > 1 | O=C(CCC(c1ccc(-n2cc(-c3ccnc4[nH]cnc34)cn2)nc1)C(F)(F)F)NC1CC1 (centres unmarked) [Example 1150, 4-(6-(4-(3H-imidazo[4,5-b]pyridin-7-yl)-1H-pyrazol-1-yl)pyridin-3-yl)-N-cyclopropyl-5,5,5-trifluoropentanamide]
< 0.1 | 2.1 | > 1 | < 0.1 | 0.36 | < 0.1 | > 0.5 | FC(F)(F)C(CCNC1CC1)c1ccc(-n2cc(-c3ccnc4[nH]cnc34)cn2)nc1 (centres unmarked) [Example 1153, N-(3-(6-(4-(3H-imidazo[4,5-b]pyridin-7-yl)-1H-pyrazol-1-yl)pyridin-3-yl)-4,4,4-trifluorobutyl)cyclopropanamine]
< 0.1 | > 0.5 | > 1 | < 0.1 | > 0.5 | < 0.1 | > 0.5 | OCCC(c1ccc(-n2cc(-c3ccnc4[nH]cnc34)cn2)nc1)C(F)(F)F (centres unmarked) [Example 1154, 3-(6-(4-(3H-imidazo[4,5-b]pyridin-7-yl)-1H-pyrazol-1-yl)pyridin-3-yl)-4,4,4-trifluorobutan-1-ol]
< 0.1 | > 1 | 1 | < 0.1 | > 1 | < 0.1 | > 1 | O=C(NC1CC1)NC(c1ccc(-n2cc(-c3ccnc4[nH]cnc34)cn2)nc1)C(F)(F)F (centres unmarked) [Example 1178, 1-(1-(6-(4-(3H-imidazo[4,5-b]pyridin-7-yl)-1H-Pyrazol-1-yl)pyridin-3-yl)-2,2,2-trifluoroethyl)-3-cyclopropylurea]
< 0.1 | > 1 | > 1 | < 0.1 | > 1 | < 0.1 | > 1 | O=C(NCCC(c1ccc(-n2cc(-c3ccnc4[nH]cnc34)cn2)nc1)C(F)(F)F)NC1CC1 (centres unmarked) [Example 1179, 1-(3-(6-(4-(3H-imidazo[4,5-b]pyridin-7-yl)-1H-Pyrazol-1-yl)pyridin-3-yl)-4,4,4-trifluorobutyl)-3-cyclopropylurea]
> 0.1 | > 1 | > 1 | < 0.1 | > 0.8 | > 0.1 | > 1 | CC(C)S(=O)(=O)CCC(c1ccc(-n2cc(-c3ccnc4[nH]cnc34)cn2)nc1)C(F)(F)F (centres unmarked) [Example 1186, 7-(1-(5-(1,1,1-trifluoro-4-(isopropylsulfonyl)butan-2-yl)pyridin-2-yl)-1H-pyrazol-4-yl)-3H-imidazo[4,5-b]pyridine]
